Data on one compound can be found in patent US7569700B2, “Substituted, bicyclic 8-pyrrolidinobenzimidazoles, methods for their production and their use as medicaments” (sanofi - aventis, priority 2005, dated 2009).

SMILES strings stand for the structures.

In this experiment the target is T1, DPP-IV from porcine kidneys (Sus scrofa, UniProt P22411).
T1 construct: DPP-IV from porcine kidneys (Sigma, Munich); purchased Sigma, Munich; host or cells: porcine kidney (tissue-derived enzyme)
The experiment in a line: Measurement of the DPP-IV activity (fluorimetric conversion of H-Ala-Pro-AFC). It counts as biochemical. The conditions noted are these: at 30 μm compound; DPP-IV 1 mU/ml, H-Ala-Pro-AFC 15 μm, Tris/HCl pH 7.4, room temperature. The protocol:
Measurement of the DPP-IV Activity:
DPP-IV from porcine kidneys (Sigma, Munich)
H-Ala-Pro-AFC (Bachem, Weil am Rhein)
DPP-IV (1 mU/ml, end concentration)
H-Ala-Pro-AFC (15 μm end concentration) in Tris/HCl (40 mM, pH 7.4), total volume 0.2 ml
The reaction was performed at room temperature for different periods (typically 10 minutes) and stopped at the end of the reaction by adding 20 μl of ZnCl2 (1 M). The conversion of H-Ala-Pro-AFC was determined fluorimetrically by measuring the emission at 535 nm on excitation at 405 nm. In the case of addition of inhibitors, the buffer volume added was adjusted such that a total volume of the test mixture of 200 μl was maintained.
% inhibition at a fixed concentration was calculated as follows: (1-enzyme activityinhibited reaction/enzyme activityuninhibited reaction)×100

T1 sequence (P22411 whole entry): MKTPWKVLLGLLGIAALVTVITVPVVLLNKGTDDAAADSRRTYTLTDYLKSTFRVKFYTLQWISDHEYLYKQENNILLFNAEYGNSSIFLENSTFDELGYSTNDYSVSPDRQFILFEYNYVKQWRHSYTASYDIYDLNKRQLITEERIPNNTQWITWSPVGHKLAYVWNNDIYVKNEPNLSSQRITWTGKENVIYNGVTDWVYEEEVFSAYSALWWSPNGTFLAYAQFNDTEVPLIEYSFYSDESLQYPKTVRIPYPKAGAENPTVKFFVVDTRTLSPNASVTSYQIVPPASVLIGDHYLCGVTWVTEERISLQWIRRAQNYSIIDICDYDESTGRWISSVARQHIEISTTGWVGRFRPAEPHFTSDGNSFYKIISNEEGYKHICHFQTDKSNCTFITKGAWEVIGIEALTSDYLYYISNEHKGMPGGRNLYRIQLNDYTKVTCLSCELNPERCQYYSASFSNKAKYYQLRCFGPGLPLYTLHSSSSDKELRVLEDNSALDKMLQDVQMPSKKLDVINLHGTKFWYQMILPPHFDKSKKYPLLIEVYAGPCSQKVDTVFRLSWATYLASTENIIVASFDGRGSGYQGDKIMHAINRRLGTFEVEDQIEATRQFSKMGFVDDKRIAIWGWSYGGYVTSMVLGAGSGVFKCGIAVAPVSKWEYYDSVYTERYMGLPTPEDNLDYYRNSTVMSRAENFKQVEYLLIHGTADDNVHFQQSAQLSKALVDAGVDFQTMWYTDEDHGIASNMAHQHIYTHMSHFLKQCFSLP

For orientation: % inhibition means the percentage by which the read-out fell short of the control. In the case of `CC(C)=CCn1c(N2CCC3CNCC32)nc2ccc(NC(=O)c3ccccc3)cc21` (stereo not shown) [Example 1], the “% inhibition at 30 μm” value turned out to be 25%.
